Values quoted from earlier work in US20050107350A1, “Method for the treatment or prevention of bone disorders with a cyclooxygenase-2 inhibitor alone and in combination with a bone disorder treatment agent and compositions therewith” (Pharmacia Corporation, priority 2003, published 2005).
Where a name gives a salt, the structure may show the parent alone.

How the values were obtained:
osteoporosis patients [1] = tested on: osteoporosis patients
patients = conditions: human, in vivo
osteoporosis patients [2] = conditions: human, in vivo
rats = conditions: rat, in vivo

Q: Which results are given for `NCCCC(O)(P(=O)(O)O)P(=O)(O)O` [alendronate, 4-amino-1-hydroxybulylidene bisphophonic acid]?
A: average improvement of patient's BMD (osteoporosis patients [1]; after three years of treatment): 8%; patients treated who show an increase in BMD at the lumbar spine (osteoporosis patients [1]; lumbar spine): ≤ 95%; common side effects (patients): can irritate the lining of the upper gastrointestinal tract

Q: What does the source list for `CC(C)C[C@H](NC(=O)[C@H](CCCCN)NC(=O)CNC(=O)[C@H](CC(C)C)NC(=O)[C@@H](NC(=O)[C@@H]1CSSC[C@H](N)C(=O)N[C@@H](CO)C(=O)N[C@@H](CC(N)=O)C(=O)N[C@@H](CC(C)C)C(=O)N[C@@H](CO)C(=O)N[C@@H]([C@@H](C)O)C(=O)N1)C(C)C)C(=O)N[C@@H](CO)C(=O)N[C@@H](CCC(N)=O)C(=O)N[C@@H](CCC(=O)O)C(=O)N[C@@H](CC(C)C)C(=O)N[C@@H](Cc1c[nH]cn1)C(=O)N[C@@H](CCCCN)C(=O)N[C@@H](CC(C)C)C(=O)N[C@@H](CCC(N)=O)C(=O)N[C@H](C(=O)N[C@@H](Cc1ccc(O)cc1)C(=O)N1CCC[C@H]1C(=O)N[C@@H](CCCNC(=N)N)C(=O)N[C@H](C(=O)N[C@@H](CC(N)=O)C(=O)N[C@H](C(=O)NCC(=O)N[C@@H](CO)C(=O)NCC(=O)N[C@H](C(=O)N1CCC[C@H]1C(N)=O)[C@@H](C)O)[C@@H](C)O)[C@@H](C)O)[C@@H](C)O` [calcitonin]?
A: improvement of BMD (osteoporosis patients [1]; intranasal, after 2 years of treatment): 1-2%; common side effects (patients): flushing, nausea, vomiting, and diarrhea

Q: With `O=C(c1ccc(OCCN2CCCCC2)cc1)c1c(-c2ccc(O)cc2)sc2cc(O)ccc12` [raloxifene, Methanone, [6-hydroxy-2-(4-hydroxyphenyl)benzo[b]thien-3-yl] - [4-[2-(1-piperidinyl)ethoxy]phenyl]-, hydrochloride] as the compound, how does the “decrease of vertebral fractures” value (osteoporosis patients [2]) read?
A: Its value is 50%.

Q: And the “increase of BMD of the lumbar spine and hip” value (osteoporosis patients [1]; over 2-3 years of treatment)?
A: The value was 2-3%.

Q: What about the common side effects (patients) of the same compound?
A: The common side effects was “leg cramps and hot flashes”.

Q: What about the “effect on risk of breast cancer” value (patients) of the same compound?
A: Its value is “significantly decreases the risk of breast cancer”.

Q: With “PTH: parathyroid hormone, the only anabolic agent currently available” as the compound, how does the bone tumors (rats) read?
A: Its bone tumors is “increase in bone tumors”.

Q: And the “increase of BMD in the spine” value (osteoporosis patients [1]; Neer et al., NEJM 2001)?
A: The value was ≤ 13%.

Q: And the common side effects (patients)?
A: Its common side effects is “nausea, headaches, and leg cramps”.
